The experiment concerns B6C3F1 mice, B16 melanoma ip, median survival T/C. Briefly: NCI In Vivo Anticancer Drug Screen. Data for tumor model B16 Melanoma (intraperitoneal) in B6C3F1 mice. The settings on record: endpoint: median survival time, higher = longer survival. The method in brief:
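Values are T/C ratios: the measurement in treated animals divided by that in vehicle-treated controls, using survival or tumor size in mice carrying transplantable tumors.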

Setting [1] is: dose: 0.25 mg/kg/injection, schedule: Q01DX009 (ip), vehicle: saline.
[2] abbreviates: dose: 0.5 mg/kg/injection, schedule: Q01DX009 (ip), vehicle: saline.
The mark [3] stands for this setting: dose: 2.0 mg/kg/injection, schedule: Q01DX009 (ip), vehicle: saline.
[4] abbreviates: dose: 1.0 mg/kg/injection, schedule: Q01DX009 (ip), vehicle: saline.
Where [5] appears, read: dose: 4.0 mg/kg/injection, schedule: Q01DX009 (ip), vehicle: saline.
Where [6] appears, read: dose: 50.0 mg/kg/injection, schedule: Q01DX009 (ip), vehicle: Klucel (hydroxypropylcellulose) (HPC).
Setting [7] is: dose: 100.0 mg/kg/injection, schedule: Q01DX009 (ip), vehicle: Klucel (hydroxypropylcellulose) (HPC).
[8] abbreviates: dose: 200.0 mg/kg/injection, schedule: Q01DX009 (ip), vehicle: Klucel (hydroxypropylcellulose) (HPC).
The mark [9] stands for this setting: dose: 400.0 mg/kg/injection, schedule: Q01DX009 (ip), vehicle: Klucel (hydroxypropylcellulose) (HPC).
Setting [10] is: dose: 6.25 mg/kg/injection, schedule: Q01DX009 (ip), vehicle: saline with Tween-80.
Where [11] appears, read: dose: 12.5 mg/kg/injection, schedule: Q01DX009 (ip), vehicle: saline with Tween-80.
Where [12] appears, read: dose: 25.0 mg/kg/injection, schedule: Q01DX009 (ip), vehicle: saline with Tween-80.
Where [13] appears, read: dose: 50.0 mg/kg/injection, schedule: Q01DX009 (ip), vehicle: saline with Tween-80.
Setting [14] is: dose: 400.0 mg/kg/injection, schedule: Q01DX009 (ip), vehicle: saline with Tween-80.
Setting [15] is: dose: 50.0 mg/kg/injection, schedule: Q01DX009 (ip), vehicle: saline.
Setting [16] is: dose: 100.0 mg/kg/injection, schedule: Q01DX009 (ip), vehicle: saline.
[17] abbreviates: dose: 200.0 mg/kg/injection, schedule: Q01DX009 (ip), vehicle: saline.
[18] abbreviates: dose: 100.0 mg/kg/injection, schedule: Q01DX009 (ip), vehicle: saline with Tween-80.
[19] abbreviates: dose: 200.0 mg/kg/injection, schedule: Q01DX009 (ip), vehicle: saline with Tween-80.

Several values for one entry are separate records, joined by “and”; a condition that tells them apart may be missing. Equal entries are not always repeated. Inconclusive results and toxic doses are left out. Where a SMILES comes first, the peptide text is derived from it. [ ]: non-standard residue; d: D form. The star is where a group is joined. Cbz = O=C(OCc1ccccc1)*; Nva = CCC[CH](N)C(=O)O

In the case of `CCOC(=O)NC1=C(N2CC2)C(=O)C(NC(=O)OCC)=C(N2CC2)C1=O`, the T/C under setting [1] was 97 % of control, the T/C under setting [2] was 92 % of control and the T/C under setting [3] was 115 % of control.

Take `COc1cc([C@@H]2c3cc4c(cc3[C@@H](OC3OC5CO[C@@H](c6cccs6)OC5C(O)C3O)[C@H]3COC(=O)[C@H]23)OCO4)cc(OC)c1O` (stereo partly drawn): the T/C reads like this: under setting [1], 110 % of control; under setting [2], 123 % of control; under setting [4], 122 % of control; under setting [5], 162 % of control.

In the case of `CC1CN1P1(N2CC2C)=NP(N2CC2C)(N2CC2C)=NP(N2CC2C)(N2CC2C)=N1` (stereo not drawn), the T/C under setting [4] is 98 % of control; the T/C (dose: 1.0 mg/kg/injection, schedule: Q02DX009 (ip), vehicle: saline) is 96 % of control; the T/C under setting [3] is 100 % of control; the T/C (dose: 2.0 mg/kg/injection, schedule: Q02DX009 (ip), vehicle: saline) is 102 % of control; the T/C under setting [5] is 106 % of control; the T/C (dose: 4.0 mg/kg/injection, schedule: Q02DX009 (ip), vehicle: saline) is 101 % of control. For the same compound, the T/C reads like this: (dose: 8.0 mg/kg/injection, schedule: Q01DX009 (ip), vehicle: saline) 115 % of control; (dose: 8.0 mg/kg/injection, schedule: Q02DX009 (ip), vehicle: saline) 105 % of control; (dose: 16.0 mg/kg/injection, schedule: Q01DX009 (ip), vehicle: saline) 117 % of control; (dose: 32.0 mg/kg/injection, schedule: Q02DX009 (ip), vehicle: saline) 122 % of control; (dose: 64.0 mg/kg/injection, schedule: Q01DX009 (ip), vehicle: saline) 118 % of control; (dose: 64.0 mg/kg/injection, schedule: Q02DX009 (ip), vehicle: saline) 94 % of control.

Consider `NC(=O)c1[nH]nc(C2OC(CO)C(O)C2O)c1O` (stereo not drawn), for which the T/C by setting is: (dose: 0.13 mg/kg/injection, schedule: Q01DX009 (ip), vehicle: saline) 106 % of control; under setting [1], 103 % of control; under setting [2], 111 % of control; under setting [4], 118 % of control.

With `ClCCCCCCCCCCc1ccccc1`, the T/C is, setting by setting: (dose: 12.5 mg/kg/injection, schedule: Q01DX009 (ip), vehicle: Klucel (hydroxypropylcellulose) (HPC)) 91 % of control; (dose: 25.0 mg/kg/injection, schedule: Q01DX009 (ip), vehicle: Klucel (hydroxypropylcellulose) (HPC)) 94 % of control; under setting [6], 91 % of control; under setting [7], 93 % of control; under setting [8], 90 % of control; under setting [9], 89 % of control.

As for `Nc1nc(Cc2ccccc2)c(CCCNc2ccccc2)c(=O)[nH]1`, the T/C is 101 % of control under setting [10], 109 % of control under setting [11], 92 % of control under setting [12] and 86 % of control under setting [13].

With `NC(=S)N/N=C\c1ncccc1OCc1cccc(N)c1`, the T/C runs as follows: (dose: 12.5 mg/kg/injection, schedule: Q01DX009 (ip), vehicle: distilled water + Tween-80) 86 % of control; under setting [11], 103 % of control; (dose: 25.0 mg/kg/injection, schedule: Q01DX009 (ip), vehicle: distilled water + Tween-80) 100 % of control; under setting [12], 109 % of control and 113 % of control and 106 % of control; (dose: 50.0 mg/kg/injection, schedule: Q01DX009 (ip), vehicle: distilled water + Tween-80) 114 % of control; (dose: 100.0 mg/kg/injection, schedule: Q01DX009 (ip), vehicle: distilled water + Tween-80) 108 % of control. In addition, the T/C is, setting by setting: (dose: 200.0 mg/kg/injection, schedule: Q01DX009 (ip), vehicle: distilled water + Tween-80) 118 % of control; (dose: 400.0 mg/kg/injection, schedule: Q01DX009 (ip), vehicle: distilled water + Tween-80) 99 % of control; under setting [14], 113 % of control and 121 % of control.

For `O=C1CCC2=C3C4CCCC5OC6CC(=O)CCC6=C(C6CCCC(OC2C1)C36)C54` (stereo not drawn), the T/C is 102 % of control under setting [15]; 102 % of control under setting [16]; 97 % of control under setting [17]; 96 % of control (dose: 400.0 mg/kg/injection, schedule: Q01DX009 (ip), vehicle: saline).

For `CCCC(=O)OCC1OC(n2cnc3c(=S)nc(N)[nH]c32)C(OC(=O)CCC)C1OC(=O)CCC` (stereo not drawn), the T/C reads like this: (dose: 0.78 mg/kg/injection, schedule: Q01DX009 (ip), vehicle: Klucel (hydroxypropylcellulose) (HPC)) 103 % of control; (dose: 1.56 mg/kg/injection, schedule: Q01DX009 (ip), vehicle: Klucel (hydroxypropylcellulose) (HPC)) 104 % of control; (dose: 3.12 mg/kg/injection, schedule: Q01DX009 (ip), vehicle: Klucel (hydroxypropylcellulose) (HPC)) 110 % of control; (dose: 6.25 mg/kg/injection, schedule: Q01DX009 (ip), vehicle: Klucel (hydroxypropylcellulose) (HPC)) 114 % of control.

In the case of `O=[N+]([O-])c1ccc(-n2[nH]nnc2=S)cc1`, the T/C is 100 % of control and 101 % of control under setting [11]; 101 % of control and 103 % of control under setting [12]; 95 % of control under setting [13]; 93 % of control and 100 % of control under setting [18]; 88 % of control and 92 % of control under setting [19].

With `CCCC(NC(=O)OCc1ccccc1)C(=O)NC(CO)C(=O)O` (stereo not drawn) (Cbz-[Nva]-Ser-OH; configuration not given here), the T/C reads like this: under setting [7], 102 % of control; under setting [8], 100 % of control; under setting [9], 103 % of control.

On to `CCN1/C(=C/C=C/C=C\C=C\c2sc3ccc4ccccc4c3[n+]2CC)Sc2ccc3ccccc3c21`, for which the T/C was 101 % of control (dose: 1.25 mg/kg/injection, schedule: Q01DX009 (ip), vehicle: saline with Tween-80); 124 % of control (dose: 1.25 mg/kg/injection, schedule: Q01DX009 (ip), vehicle: saline); 94 % of control (dose: 2.5 mg/kg/injection, schedule: Q01DX009 (ip), vehicle: saline with Tween-80); 123 % of control (dose: 2.5 mg/kg/injection, schedule: Q01DX009 (ip), vehicle: saline).

As to `Cc1ccc(NN=O)nc1`, the T/C is 114 % of control (dose: 0.75 mg/kg/injection, schedule: Q01DX009 (ip), vehicle: water); 120 % of control (dose: 1.5 mg/kg/injection, schedule: Q01DX009 (ip), vehicle: water); 112 % of control (dose: 1.56 mg/kg/injection, schedule: Q01DX009 (ip), vehicle: water); 120 % of control (dose: 3.0 mg/kg/injection, schedule: Q01DX009 (ip), vehicle: water); 124 % of control (dose: 6.0 mg/kg/injection, schedule: Q01DX009 (ip), vehicle: water).

In the case of `Nc1nc(-c2ccc([N+](=O)[O-])cc2)c(Br)c(=O)[nH]1`, the T/C is 98 % of control under setting [12], 107 % of control under setting [13], 107 % of control under setting [18] and 95 % of control under setting [19].

As to `COC(=O)Nc1cn2ccc(C(Cl)=C(Cl)Cl)cc2n1`, the T/C is, setting by setting: under setting [6], 111 % of control; under setting [7], 116 % of control.

Regarding `CN(C)CCOc1ccc2c(c1)C/C(=C/c1ncc([N+](=O)[O-])n1C)C2=O`, the T/C is, setting by setting: under setting [10], 100 % of control; under setting [11], 104 % of control; under setting [12], 100 % of control; under setting [13], 111 % of control.

With `CC1(C)OCC2OC=CC(=O)C2O1` (stereo not drawn), the T/C was 102 % of control under setting [12]; 100 % of control under setting [13]; 97 % of control under setting [18]; 105 % of control under setting [19]; 95 % of control under setting [14].

`O=C(NC(Cc1cnc[nH]1)C(=O)NC(Cc1ccc(O)cc1)C(=O)O)OCc1ccccc1` (stereo not drawn) (Cbz-His-Tyr-OH; configuration not given here): the T/C under setting [7] was 102 % of control, the T/C under setting [8] is 103 % of control and the T/C under setting [9] was 110 % of control.

For the compound `C=C1CCOC2(C(O)C(C)(O)CO)NC(=O)C1(O)NC2=O` (stereo not drawn), the T/C by setting is: under setting [15], 97 % of control; under setting [16], 95 % of control; under setting [17], 99 % of control.

Source of the values: PubChem BioAssay AID200 (DTP/NCI, 2004).
